Experimental data from patent USRE48335E1, “Polymyxin derivatives as antimicrobial compounds” (priority 2014, dated 2020).
Converted amounts (≈) assume the structure as drawn. Positions of bridges follow the written chain, without caps; N, C: chain ends. Non-standard residues stand in square brackets, D forms with d. Residues, ends and D or L forms follow the SMILES beside them. *: point of attachment. X18 = O=C(c1ccc(Cl)c(C(F)(F)F)c1)*; X15 = O=C(c1ccc(Cl)c(F)c1)*; X19 = Cc1cc(Cl)cc(C(=O)*)c1; Dab = NCC[C@H](N)C(=O)O; Abu = CC[C@H](N)C(=O)O; Dap = NC[C@H](N)C(=O)O

Key:
Acinetobacter baumannii = test system: Acinetobacter baumannii
How it was run: (§1)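 Broth microdilution MICs following CLSI standards in cation-adjusted Mueller-Hinton broth. Lipopeptides tested as TFA salts; polymyxin B sulphate served as control.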

Enterobacter cloacae = test system: Enterobacter cloacae
How it was run: as §1

Klebsiella pneumoniae = test system: Klebsiella pneumoniae
How it was run: as §1

Pseudomonas aeruginosa = test system: Pseudomonas aeruginosa
How it was run: as §1

P. aeruginosa ATCC 27853 = experiment: In vivo efficacy in mouse blood infection model (neutropenic Swiss mice); conditions: compound, free base 4 mg/kg intravenously 2 h after inoculation, blood at 4 h
Experimental: P. aeruginosa ATCC 27853, A. baumannii ATCC 19606 and K. pneumoniae FADDI-KP032 were subcultured on nutrient agar plates. One colony of each bacterial strain was dispersed in 10-mL CAMHB and incubated overnight. On day 2, an aliquot (0.2 mL) of each overnight culture suspension was dispersed in 20-mL CAMHB and incubated for 1.5-2.5 h for production of early log-phase growth bacterial culture. The bacteria in the early log-phase growth suspension were concentrated by centrifugation (3,220 g for 10 min) and re-suspended in sterile 0.9% saline for inoculation into mice. The bacterial cell concentration (colony forming unit [CFU]/mL) in saline was estimated by determining the optical density (OD) of the suspension at 600 nm, and confirmed by plating the suspension on nutrient agar plates. Swiss mice (22 to 28 g) were rendered neutropenic by injecting two doses of cyclophosphamide intraperitoneally, −4 day (150 mg/kg) and −1 day (100 mg/kg) prior to inoculation. Bloodstream infection was established by injecting intravenously 50 μL of early log-phase bacterial suspension (10^8-10^9 CFU/mL). The exact injection volume for each bacterial suspension was calculated based upon the OD value of the bacterial suspension and the desired inoculum for each isolate.
Solutions for administration of colistin, polymyxin B or the compounds were prepared at a concentration of 1 mg (free base) per mL in sterile 0.9% saline. At 2 h after inoculation, a mouse in the treatment groups was injected intravenously with one of the above solutions at 4 μL/g body weight (BW) (i.e. free base 4 mg/kg BW), while the same volume of saline was injected into the control mice. At 0 h or at 4 h after the administration of antibacterial drug or saline (control), animals were euthanised by inhalation of overdose isoflurane. The skin on the chest and fore-paws of each animal was thoroughly cleansed with 70% ethanol and Betadine®. The blood was collected via cardiac puncture using a 1-mL syringe rinsed with heparin (5,000 IU/mL), diluted serially in sterile 0.9% saline and plated on nutrient agar plates using a spiral plater.
The agar plates were incubated at 37° C. overnight. The bacterial colonies on the plate were counted and CFU/mL of the blood was calculated. The log10 CFU/mL of blood in each mouse was calculated. The in vivo activity of the compounds against the bacteria was calculated as the difference of the log10 CFU/mL values between the treated mice and the control mice at 4 h (Δ log=log10 (treated)CFU/mL−log10 (control)CFU/mL).
Any compound showing a decrease in bacterial loading (Δ log) of ≥2 at 4 h is considered to have good in vivo efficacy in this initial screening model.

CC[C@@H]1NC(=O)[C@@H](CC(C)C)NC(=O)[C@H](CCN)NC(=O)[C@@H](NC(=O)[C@H](CN)NC(=O)[C@@H](NC(=O)[C@H](CCN)NC(=O)c2ccc(Cl)c(F)c2)[C@@H](C)O)CCNC(=O)[C@H]([C@@H](C)O)NC(=O)[C@H](CCN)NC(=O)[C@H](CCN)NC1=O [Compound 107] (X15-[Dab]T[Dap][Dab][Dab][dL][Abu][Dab][Dab]T; lactam 4-C)
MIC (Acinetobacter baumannii): 2 µg/mL (≈ 1.75 µM)
Minimum inhibitory concentration, Ab A ATCC 17978 (Acinetobacter baumannii): 0.5 µg/mL (≈ 0.437 µM)
Minimum inhibitory concentration, Ab ATCC 19606 (Acinetobacter baumannii): 2 µg/mL (≈ 1.75 µM)
Minimum inhibitory concentration, Ab FADDI-AB034 (Acinetobacter baumannii): 0.25 µg/mL (≈ 0.219 µM)
Minimum inhibitory concentration, Ec FADDI-EC001 (Enterobacter cloacae): 0.25 µg/mL (≈ 0.219 µM)
Minimum inhibitory concentration, Ec FADDI-EC003 (Enterobacter cloacae): 0.25 µg/mL (≈ 0.219 µM)
Minimum inhibitory concentration, Ec FADDI-EC006 (Enterobacter cloacae): 0.25 µg/mL (≈ 0.219 µM)
MIC (Klebsiella pneumoniae): 0.25 µg/mL (≈ 0.219 µM)
MIC (Pseudomonas aeruginosa): 0.5 µg/mL (≈ 0.437 µM)
Minimum inhibitory concentration, Pa ATCC 27853 (Pseudomonas aeruginosa): 0.5 µg/mL (≈ 0.437 µM)
Minimum inhibitory concentration, Pa FADDI-PA022 (Pseudomonas aeruginosa): 0.5 µg/mL (≈ 0.437 µM)
Minimum inhibitory concentration, Pa FADDI-PA025 (Pseudomonas aeruginosa): 2 µg/mL (≈ 1.75 µM)
Δ log (Treated-Control at 4 h) (P. aeruginosa ATCC 27853): −2.98 log10 CFU/mL

CC[C@@H]1NC(=O)[C@@H](CC(C)C)NC(=O)[C@H](CCN)NC(=O)[C@@H](NC(=O)[C@H](CN)NC(=O)[C@@H](NC(=O)[C@H](CCN)NC(=O)c2ccc(Cl)c(C(F)(F)F)c2)[C@@H](C)O)CCNC(=O)[C@H]([C@@H](C)O)NC(=O)[C@H](CCN)NC(=O)[C@H](CCN)NC1=O [Compound 112] (X18-[Dab]T[Dap][Dab][Dab][dL][Abu][Dab][Dab]T; lactam 4-C)
MIC (Acinetobacter baumannii): 0.25 µg/mL (≈ 0.209 µM)
Minimum inhibitory concentration, Ab A ATCC 17978 (Acinetobacter baumannii): <0.125 µg/mL
Minimum inhibitory concentration, Ab ATCC 19606 (Acinetobacter baumannii): 0.25 µg/mL (≈ 0.209 µM)
Minimum inhibitory concentration, Ab FADDI-AB034 (Acinetobacter baumannii): 0.25 µg/mL (≈ 0.209 µM)
Minimum inhibitory concentration, Ec FADDI-EC001 (Enterobacter cloacae): 0.5 µg/mL (≈ 0.419 µM)
Minimum inhibitory concentration, Ec FADDI-EC003 (Enterobacter cloacae): 0.25 µg/mL (≈ 0.209 µM)
Minimum inhibitory concentration, Ec FADDI-EC006 (Enterobacter cloacae): 0.5 µg/mL (≈ 0.419 µM)
MIC (Klebsiella pneumoniae): 0.5 µg/mL (≈ 0.419 µM)
MIC (Pseudomonas aeruginosa): 0.5 µg/mL (≈ 0.419 µM)
Minimum inhibitory concentration, Pa ATCC 27853 (Pseudomonas aeruginosa): 0.5 µg/mL (≈ 0.419 µM)
Minimum inhibitory concentration, Pa FADDI-PA022 (Pseudomonas aeruginosa): 0.5 µg/mL (≈ 0.419 µM)
Minimum inhibitory concentration, Pa FADDI-PA025 (Pseudomonas aeruginosa): 1 µg/mL (≈ 0.838 µM)
Δ log (Treated-Control at 4 h) (P. aeruginosa ATCC 27853): −3.15 log10 CFU/mL

CC[C@@H]1NC(=O)[C@@H](CC(C)C)NC(=O)[C@H](CCN)NC(=O)[C@@H](NC(=O)[C@H](CN)NC(=O)[C@@H](NC(=O)[C@H](CCN)NC(=O)c2cc(C)cc(Cl)c2)[C@@H](C)O)CCNC(=O)[C@H]([C@@H](C)O)NC(=O)[C@H](CCN)NC(=O)[C@H](CCN)NC1=O [Compound 114] (X19-[Dab]T[Dap][Dab][Dab][dL][Abu][Dab][Dab]T; lactam 4-C)
MIC (Acinetobacter baumannii): 2 µg/mL (≈ 1.75 µM)
Minimum inhibitory concentration, Ab A ATCC 17978 (Acinetobacter baumannii): 0.5 µg/mL (≈ 0.439 µM)
Minimum inhibitory concentration, Ab ATCC 19606 (Acinetobacter baumannii): 2 µg/mL (≈ 1.75 µM)
Minimum inhibitory concentration, Ab FADDI-AB034 (Acinetobacter baumannii): 0.5 µg/mL (≈ 0.439 µM)
Minimum inhibitory concentration, Ec FADDI-EC001 (Enterobacter cloacae): 0.25 µg/mL (≈ 0.219 µM)
Minimum inhibitory concentration, Ec FADDI-EC003 (Enterobacter cloacae): 0.25 µg/mL (≈ 0.219 µM)
Minimum inhibitory concentration, Ec FADDI-EC006 (Enterobacter cloacae): 0.25 µg/mL (≈ 0.219 µM)
MIC (Klebsiella pneumoniae): 0.25 µg/mL (≈ 0.219 µM)
MIC (Pseudomonas aeruginosa): 0.5 µg/mL (≈ 0.439 µM)
Minimum inhibitory concentration, Pa ATCC 27853 (Pseudomonas aeruginosa): 0.5 µg/mL (≈ 0.439 µM)
Minimum inhibitory concentration, Pa FADDI-PA022 (Pseudomonas aeruginosa): 1 µg/mL (≈ 0.877 µM)
Minimum inhibitory concentration, Pa FADDI-PA025 (Pseudomonas aeruginosa): 1 µg/mL (≈ 0.877 µM)
Δ log (Treated-Control at 4 h) (P. aeruginosa ATCC 27853): −2.57 log10 CFU/mL
